“Also recorded” adds a separate entry of the source. Where two headings read alike, the source gives them in different places.
Tests used:
[1] = molecular target: SARS-CoV-2 M^pro (Severe acute respiratory syndrome coronavirus 2, UniProt P0DTD1); experiment: biochemical; type: biochemical; conditions: for inhibition at 10 µM: read-out: SARS-CoV-2 M^pro % Inhibition at 10 μM; for M^pro inhibition, result in words: tested at 10 µM
[2] = molecular target: T1, malate dehydrogenase (MDH) (Sus scrofa, UniProt P00346); type: biochemical; conditions: 31.6 µM, with or without 0.01% (v/v) Triton X-100
T1 sequence (P00346 25-338): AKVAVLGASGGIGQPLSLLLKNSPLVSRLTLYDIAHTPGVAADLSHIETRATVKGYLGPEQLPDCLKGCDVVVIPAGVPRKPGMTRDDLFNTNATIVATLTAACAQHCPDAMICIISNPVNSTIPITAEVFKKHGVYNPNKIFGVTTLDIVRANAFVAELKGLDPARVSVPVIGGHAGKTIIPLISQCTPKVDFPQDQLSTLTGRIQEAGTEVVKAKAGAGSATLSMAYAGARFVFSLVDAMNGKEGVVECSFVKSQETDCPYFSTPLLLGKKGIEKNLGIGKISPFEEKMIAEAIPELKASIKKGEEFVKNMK

[3] = test system: SARS-CoV-2 isolate NK, Pango lineage B.1.513; experiment: microbe, parasite or virus in culture; type: cell-based; conditions: for inhibition of viral titers: 10 µM; for EC50: read-out: EC50 antiviral activity; for inhibition at 10 µM: Severe acute respiratory syndrome coronavirus 2, Calu-3, 24 h, read-out: inhibition of viral titers
[4] = Dynamic light scattering (DLS) for colloidal particle formation; type: physicochemical; conditions: 31.6 µM, 50 mM KPi pH 7.0, 1% DMSO
[5] = test system: fatty acid synthase; conditions: background statement, no reference given; cited from earlier work
[6] = test system: HIV-1 protease; conditions: background statement, no reference given; cited from earlier work
[7] = test system: nitric oxide synthesis; conditions: background statement, no reference given; read-out: IC50 for reduction of nitric oxide synthesis; cited from earlier work
[8] = test system: prostaglandin E2 (PGE2) synthesis; conditions: background statement, no reference given; read-out: IC50 for reduction of prostaglandin E2 synthesis; cited from earlier work
[9] = FRET assay, 50 nM M^pro, 10 min preincubation
[10] = compound at 10 μM, FRET assay, 50 nM M^pro
[11] = Severe acute respiratory syndrome coronavirus 2, 24 h

Compound | IC50 [1, 9] [µM] | inhibition at 10 µM [1, 10] [%] | also measured
C=C1C(=O)OC2CC3(C)CCCC(C)C3=CC12 (stereo not shown) [Alantolacton] | > 10 | 27.6 | 
O=c1c(O)c(-c2cc(O)c(O)c(O)c2)oc2cc(O)ccc12 [Robinetin] | 0.96 | 86.1 | MDH inhibition with 0.01% Triton X-100 (detergent reversibility) [2]: reversed in the presence of detergent; inhibition of viral titers [3]: 89.6%; EC50 [3]: 0.0013 µM; colloidal-like particle formation by DLS [4]: neither of these compounds produced colloidal-like particles; also recorded: do not form colloidal-like particles
C[C@]12CC[C@H](O)C[C@H]1CC[C@@H]1[C@@H]2CC[C@]2(C)[C@@H](c3ccc(=O)oc3)C[C@H]3O[C@]132 [Resibufogenin] |  |  | IC50 [1]: > 10 µM; inhibition at 10 µM [1]: 6.32%
Oc1ccc(/C=C/c2cc(O)cc(O)c2)cc1 [Resveratrol] | > 10 | 5.96 | M^pro inhibition, result in words [1]: unable to inhibit the enzyme
CC(C)C(=O)OC[C@H]1O[C@@H](n2ccc(NO)nc2=O)[C@H](O)[C@@H]1O [Molnupiravir, reference compound] |  |  | EC50 [3, 11]: 0.00545 µM
C[C@@H]1O[C@@H](Oc2c(-c3ccc(O)c(O)c3)oc3cc(O)cc(O)c3c2=O)[C@H](O)[C@H](O)[C@H]1O [Quercitrin] | > 10 | 2.42 | M^pro inhibition, result in words [1]: unable to inhibit the M^pro enzyme
COc1c(O)cc2oc3cc(O)c(CC=C(C)C)c(O)c3c(=O)c2c1CC=C(C)C [α-Mangostin] | 25.1 |  | IC50 [5]: 5.54 µM; IC50 [6]: 5.12 µM; IC50 [7]: 11.1 µM; IC50 [8]: 12.4 µM
O=C(/C=C/c1ccc(O)c(O)c1)O[C@H](Cc1ccc(O)c(O)c1)C(=O)O [Rosmarinic acid] | 6.84 | 50.6 | EC50 [3, 11]: 0.0167 µM; inhibition at 10 µM [3]: 81%
O=c1cc(-c2ccc(O)c(O)c2)oc2cc(O)cc(O)c12 [Luteoline] | > 10 | 9.65 | M^pro inhibition, result in words [1]: unable to inhibit M^pro
CCCCCCCCCCC[C@@H](C[C@@H]1OC(=O)[C@H]1CCCCCC)OC(=O)[C@H](CC(C)C)NC=O [Orlistat, reference compound] | > 10 | 21 | 
O=C(/C=C/c1ccc(O)c(O)c1/C=C/c1ccc(O)c(O)c1)O[C@H](Cc1ccc(O)c(O)c1)C(=O)O [Salvianolic acid A] |  | 50.8 | 
O=C1O[C@H]([C@@H](O)CO)C(O)=C1O [L-Ascorbic acid] | > 10 | 22.2 | 
COC(=O)C1=CO[C@@H](O[C@@H]2O[C@H](CO)[C@@H](O)[C@H](O)[C@H]2O)[C@@H]2[C@@H](C)[C@@H](O)C[C@H]12 [Loganin] |  | 29.4 | IC50 [1]: > 10 µM
C=C1CC[C@H]2C(=C)CC[C@H]3C(=C)C(=O)O[C@@H]3[C@@H]12 [Dehydrocostus lactone] | > 10 | 13.4 | 
CC(C)=CCC[C@]1(C)C=Cc2c(O)c3c(c(CC=C(C)C)c2O1)O[C@]12C(=C[C@@H]4C[C@H]1C(C)(C)O[C@@]2(C/C=C(/C)C(=O)O)C4=O)C3=O [Gambogic acid] | > 10 | 22.8 | 
Cc1coc2c1C(=O)C(=O)c1c-2ccc2c(C)cccc12 [Tanshinone I] |  | 7.03 | 
CC1=C2C3OC(=O)C(C)C3CCC2(C)C=CC1=O (stereo not drawn) [(−)-α-Santonin] | > 10 | 24.1 | 
C=C1C(=O)[C@]23[C@H](O)[C@H]1CC[C@H]2[C@@]12CO[C@]3(O)[C@@H](O)[C@@H]1C(C)(C)CC[C@@H]2O [Oridonin] |  | 81.9 | EC50 [3, 11]: 0.0128 µM; inhibition at 10 µM [3]: 89%
O=c1c(O)c(-c2ccc(O)c(O)c2)oc2cc(O)ccc12 [Fisetin] | > 10 |  | SARS-CoV-2 M^pro % Inhibition at 10 μM [1, 10]: −11.21%
Myricitrin |  |  | SARS-CoV-2 M^pro % Inhibition at 10 μM [1, 10]: 11.67%; M^pro inhibition, result in words [1]: did not, however, inhibit M^pro; M^pro inhibition, result in words ([1]; listed as myricitrin): did not inhibit M^pro
O=C(OC1Cc2c(O)cc(O)cc2OC1c1cc(O)c(O)c(O)c1)c1cc(O)c(O)c(O)c1 [L-Epigallocatechin gallate] |  | 105 | MDH inhibition with 0.01% Triton X-100 (detergent reversibility) [2]: reversed in the presence of detergent; M^pro inhibition, result in words [1]: completely inhibit the SARS-CoV-2 M^pro activity; inhibition of viral titers [3]: 81.4%; EC50 [3]: 0.115 µM; colloidal-like particle formation by DLS ([4]; listed as ECGC): do not form colloidal-like particles; colloidal-like particle formation by DLS ([4]; listed as EGCG): neither of these compounds produced colloidal-like particles
COC1=C[C@@H]2[C@@H]3Cc4ccc(OC)c(O)c4[C@]2(CCN3C)CC1=O [Sinomenine] |  |  | IC50 [1]: > 10 µM; inhibition at 10 µM [1]: 4.8%
C=C1C(=O)OC2C1CCC(C)=CCCC1(C)OC21 (single isomer, unassigned; (-)) [(−)-Parthenolide] | > 10 | 20.1 | 
C=C(C)C1CCC2=CC(=O)CC(C)C2(C)C1 (single isomer, unassigned; (+)) [(+)-Nootkaton] | > 10 | 32 | 
O=c1cc(-c2cc(O)c(O)c(O)c2)oc2cc(O)cc(O)c12 [Tricetin] | 7.84 | 72.3 | 
Oc1cc(O)cc(/C=C/c2ccc(O)c(O)c2)c1 [Piceatannol] | 2.03 | 76.9 | EC50 [3, 11]: 0.00342 µM; inhibition at 10 µM [3]: 81%
CCOC1=C(O)C(=O)O[C@@H]1[C@@H](O)CO [3-O-Ethyl-L-ascorbic acid] |  | 24.9 | IC50 [1]: > 10 µM
COc1ccc2ccc(=O)oc2c1CC=C(C)C [Osthole] | > 10 | 4.98 | 
O=c1cc(-c2ccc(O)cc2)oc2cc(O)c(O)c(O)c12 [Scutellarein] |  | 76.1 | EC50 [3, 11]: 0.00257 µM; inhibition at 10 µM [3]: 87%
C=C1C(=O)O[C@@H]2/C=C(\C)CC/C=C(\C)CC[C@@H]12 [Costunolide] | > 10 | 28 | 

— paper PMC9959258, “Discovery of Polyphenolic Natural Products as SARS-CoV-2 M^pro Inhibitors for COVID-19” (Pharmaceuticals, 2023)
